Measurements taken from patent US5834500A, “Sulfur-containing heterocyclic bradykinin antagonists, process for their preparation, and their use” (Hoechst Aktiengesellschaft, priority 1996, dated 1998).

Assays:
bradykinin B2 receptor = target: T1, bradykinin B2 receptor (Cavia porcellus, UniProt O70526); test: binding to the bradykinin B2 receptor of guinea pig ileum (3H-bradykinin competition); conditions: guinea pig ileum membranes, 3H-bradykinin 0.25 to 0.3 nmol/l; read-out: antagonistic effect expressed as IC50-value on the guinea pig B2 receptor
T1 construct: from tissue; host or cells: guinea pig ileum membranes
T1 sequence (O70526 1-372): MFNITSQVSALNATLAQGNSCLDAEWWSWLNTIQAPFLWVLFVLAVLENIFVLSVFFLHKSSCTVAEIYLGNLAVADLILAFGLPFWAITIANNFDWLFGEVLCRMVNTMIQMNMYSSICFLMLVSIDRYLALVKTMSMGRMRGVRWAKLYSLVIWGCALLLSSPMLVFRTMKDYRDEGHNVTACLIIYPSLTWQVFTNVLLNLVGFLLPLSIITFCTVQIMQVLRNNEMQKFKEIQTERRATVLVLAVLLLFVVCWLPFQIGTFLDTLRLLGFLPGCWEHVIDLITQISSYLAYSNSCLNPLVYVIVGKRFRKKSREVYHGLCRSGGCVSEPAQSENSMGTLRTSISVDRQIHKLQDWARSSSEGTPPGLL
Method: The method of measuring binding to the bradykinin B2 receptor of guinea pig ileum is described below (R. B. Innis et al., Proc. NatI. Acad. Sci. USA; 17 (1981) 2630): […] Ligand: ^3 H-BRADYKININ (from NEN Du Pont) 2. Buffer mixtures: a) TES buffer: 25 mM TES (SIGMA, Cat. No.: T-4152) […] Cat. No.: P-9375) b) Incubation buffer: 25 mM TES (SIGMA; Cat. No.: T-4152) […] Cat. No.: P-9375) […] Cat. No.: A-7906) 140 μg/ml bacitracin (SIGMA; Cat. No.: B-0125) […] Cat. No.: D-0632) […] Both buffers are adjusted to pH 6.8 with 5 molar NaOH. 3. Membrane preparation: Guinea pig ilea are roughly freed of intestinal contents by carefully smoothing them out and are cleansed in 0.9% NaCl solution. The approx. 2 cm-long ilea pieces are transferred into ice-cold TES buffer (approx. 1 g/10 ml) and homogenized with an Ultraturrax for approx. 30 sec. in an ice bath. The homogenate is then filtered through 3 layers of gauze and the filtrate is centrifuged at 50,000 g for 10 minutes. The supernatant is discarded and the pellet is rehomogenized in the same volume of TES buffer and centrifuged once again at 50,000 g for 10 minutes. The pellet is rehomogenized in incubation buffer (approx. 1 g/5 ml) and frozen down at -70° C., in 2 ml aliquots, in cryotubes. The protein concentration of the finished membrane suspension is determined by the LOWRY method and should be approx. 15 μg/100 μl. 4. Binding test: All the incubations are carried out, at room temperature for 60 minutes, in a 200 μl volume on microtiter plates (96×300 μl). All the mixtures are in incubation buffer. For this, 50 μl of the radioligand, 50 μl of the preparation to be tested and 100 μl of the membrane suspension are pipetted consecutively into the wells of the microtiter plate. b) Competition experiments (IC50): A fixed quantity of the radioactive ligand (from 0.25 to 0.3 nmol/l ^3 H-bradykinin) and different concentrations of the unlabeled agonists or antagonists are employed for this purpose. 50 μl of the preparations or the standards to be tested, are added, in concentrations of from 10^-5 to 10^-10 mol/l, to in each case 50 μl of the ^3 H-bradykinin solution and the reaction is started by adding 100 μl of membrane suspension. […] As a rule, the preparations which are to be tested for competition are dissolved, at a concentration of 1 mmol/l, in dimethyl sulfoxide (DMSO) and subsequently subjected to further dilution with DMSO. This solution is then diluted 1:25 with incubation buffer. […] The filters, which are still moist, are punched out into mini scintillation vials, which are filled with 3 ml of scintillator. After having been left to soak for approx. 12 hours, the samples are shaken up briefly and measured in a beta counter. c) Screening: […] 4. Evaluation: The evaluation is effected by means of the LIGAND program package (McPherrson, Minson & Rodbard, Marketing: Elsevier-BIOSOFT), which performs the necessary calculations for determining IC50 and Ki values. This program also performs graphic depictions of the saturation and displacement curves and also SCATCHARD plots, HILL plots or HOFSTEE plots.

[1] = test system: isolated guinea pig pulmonary artery; test: bradykinin-induced contraction of isolated guinea pig pulmonary artery; conditions: Cavia porcellus, 10 min; isolated vessel strip, contraction by 2×10^-7 mol/l bradykinin, 10 minutes exposure; read-out: antagonistic effect expressed as IC50-value on the guinea pig pulmonary artery
Method: For testing the novel compounds on the isolated pulmonary artery, guinea pigs (Dunkin Hartley) having a weight of 400-450 g are killed by a blow to the neck.
The thorax is opened and the pulmonary artery is carefully dissected out. The surrounding tissue is carefully removed and the pulmonary artery is cut open spirally at an angle of 45°.
The blood vessel strip, which is 2.5 cm long and 3-4 mm wide, is fastened in a 10 ml-capacity organ bath which is filled with Ringer solution. […]
95% O2 and 5% CO2 is bubbled through the solution, which is warmed to 37° C. The pH is 7.4 and the initial load on the vessel strip is 1.0 g.
The isotonic contraction changes are detected with a lever attachment and a high frequency modem (distance measuring device) from Hugo Sachs and registered on a potentiometric recorder (BEC, Goerz Metrawatt SE 460).
The experiment is started after 1 hour of equilibration. Once the maximum sensitivity of the vessel strips to 2×10^-7 mol/l bradykinin has been reached--bradykinin causes the vessel strips to contract--the test compounds, at doses of 5×10^-8 -1×10^-5 mol/l, are allowed to exert their effect for 10 minutes in each case and, after bradykinin has been added once again, the decrease in the effect of bradykinin is compared with the control.

Compound	IC50 (bradykinin B2 receptor)	IC50 [1]
Cc1ccc(/C=C/C(=O)NCC(=O)N(C)c2ccc(Cl)c(COc3cccc4sc(C)nc34)c2Cl)cc1 [Example 23]	< 0.1 µM	< 1 µM
COc1cccc(/C=C/C(=O)NCC(=O)N(C)c2ccc(Cl)c(COc3cccc4sc(C)nc34)c2Cl)c1 [Example 11]	< 0.1 µM	< 1 µM
Cc1nc2c(OCc3c(Cl)ccc(N(C)C(=O)CNC(=O)COc4ccc(OC(F)(F)F)cc4)c3Cl)cccc2s1 [Example 37]	< 0.1 µM	< 1 µM
C=C/C=C/C(=O)NCC(=O)N(C)c1ccc(Cl)c(COc2cccc3sc(C)nc23)c1Cl [Example 6]	< 0.1 µM	< 1 µM
Cc1nc2c(OCc3c(Cl)ccc(N(C)C(=O)CNC(=O)/C=C/c4ccco4)c3Cl)cccc2s1 [Example 12]	< 0.1 µM	< 1 µM
Cc1nc2c(OCc3c(Cl)ccc(N(C)C(=O)CNC(=O)/C=C/c4ccc(C(F)(F)F)cc4)c3Cl)cccc2s1 [Example 3]	< 0.1 µM	< 1 µM
